Experimental data: patent publication US20070225363A1, “Methods and Agents for Inhibiting Dynamin-Dependent Endocytosis” (the University of Newcastle Research Associates Ltd., priority 2003, published 2007)
“Also recorded” adds a separate entry of the source.

Tests used:
dynamin I [1] = target: T1, dynamin I (Ovis aries, UniProt A0ACI6NZN1); assay: Dynamin I GTPase assay ([γ-32P]GTP hydrolysis); assay type: biochemical, sheep
Procedure: (§1) The plasmid for GST-Amph2-SH3 (muscle Amph2) (Butler et al., 1997) was provided by Pieto DeCamilli, Yale, Connecticut, USA, in pGEX2T vectors. The plasmid was grown in E. coli and the GST-Amph2-SH3 fusion protein was purified on glutathione (GSH)-Sepharose by elution with 10 mM reduced GSH in 20 mM Tris-HCl, pH 7.5, dialysed against the same buffer without GSH and stored at 4° C. Dynamin was purified from sheep brain by extraction from the peripheral membrane fraction of whole brain (Robinson et al., 1993) and affinity purification on GST-Amph2-SH3-sepharose as previously described (Marks and McMahon., 1998), yielding 8 mg protein from 250 g sheep brain. Recombinant dynamin II was expressed in insect cells and was a gift from Dr Sandra Schmid (Scripps, San Diego, Calif.). Recombinant dynamin I lacking the PH domain (dynamin PH, provided by Robin Scaife) was expressed in insect cells using baculoviral infection (Salim et al., 1996).
(§2) Dynamin GTPase activity was determined by hydrolysis of [ ? -^32P]GTP by a method modified from that described previously (Robinson et al., 1993). Briefly, purified dynamin I or dynamin II (0.2 μg/tube) was incubated in GTPase buffer (10 mM Tris, 10 mM NaCl, 2 mM Mg^2+, 0.05% Tween 80, pH 7.4, 1 μg/ml leupeptin and 0.1 mM PMSF) and a GTP cocktail containing 0.3 mM GTP and 1.3 μCi [ ? -^32P]-GTP in the presence or absence of varying concentrations of inhibitors or DMSO vehicle for 10 min at 30 C. The final assay volume was 40 μl. Dynamin activity was measured as either basal or phospholipid-stimulated with the addition of 5 μg/ml L-phosphatidylserine. The reaction was terminated with 100 μl of GTPase stop buffer (2% formic add, 8% acetic acid, pH 1.9), followed by 600 μl of acid-washed charcoal solution (7% charcoal in acidic solution (w/v)) and 100 μl BSA (5 mg/ml). After centrifuging for 5 min (13,000 rpm at room temperature), 200 μl of each supernatant was counted in a -counter for the release of ^32Pi from [ ? -^32P]-GTP.

dynamin II = assay: [α-32P]-GTP binding assay, dynamin II
Procedure: (§3) The [α-^32P]-GTP-binding assay was performed in the wells of a 96-well microtitre plate. Dynamin (0.2 μg/well) was added to GTPase buffer and incubated for 10 min at 4 C in the dark. [α-^32P]-GTP (2 μCi/tube) was then added to the reaction and incubated for a further 10 min at 4 C. in the dark. The microtitre plate was then irradiated with a short wavelength ultraviolet lamp at […] for 30 min at a distance of 8 cm. The specificity of photolabelling was determined by comparing the labelling in the presence and absence of 1 mM cold GTP. Samples were then applied to nitrocellulose membranes by aspiration through the wells of a 24 well slot blotter. The nitrocellulose was washed 3 times with PBS and dried. Bound nucleotide was detected by a phosphorimager (Molecular Dynamics).

dynamin I [2] = target: T1, dynamin I; assay: [α-32P]-GTP binding assay, dynamin I; design: species or system sheep
Procedure: as §3

ΔPH domain dynamin I = assay: GTPase assay with recombinant dynamin I lacking the PH domain; assay type: biochemical
Procedure: as §1
as §2, with “-^32P]-GTP. […]” for “-^32P]-GTP.”

Arf2 = assay: [α-32P]-GTP binding to small G protein Arf2; details: data not shown
Procedure: (§4) Competition of these drugs with GTP for the active site of 4 small G proteins (Rab3A, Ras, Arf2, RalA) was also tested.

Rab3A = target: T2, Rab3A (Homo sapiens, UniProt P20336); assay: [α-32P]-GTP binding to small G protein Rab3A; details: data not shown
T2 sequence (P20336 1-220): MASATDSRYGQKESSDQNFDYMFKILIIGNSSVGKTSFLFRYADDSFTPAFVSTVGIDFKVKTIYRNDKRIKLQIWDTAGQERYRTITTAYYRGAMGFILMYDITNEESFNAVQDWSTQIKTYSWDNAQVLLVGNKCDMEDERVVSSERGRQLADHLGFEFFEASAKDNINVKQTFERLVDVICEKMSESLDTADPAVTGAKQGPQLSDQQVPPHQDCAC
Procedure: as §4

Swiss 3T3 cells = assay: Texas Red-transferrin uptake in Swiss 3T3 cells; assay type: cell-based; details: drug added 15 or 60 minutes before Tf-TxR
Procedure: (§5) Transferrin (Tf) uptake was analysed in Swiss 3T3 and HER14 cells based on methods previously described (van der Bliek et al., 1993). Briefly, cells were plated to 60% confluency in DMEM medium plus 10% foetal calf serum after which the cells were incubated overnight (8-10 hours) in DMEM minus foetal calf serum. Texas red-transferrin (Tf-TxR, Molecular Probes, Oregon) was added to a final concentration of 5 μg/ml and the cells incubated at 37° C. for 10 minutes. Cell surface staining was removed by incubating the cells in an ice cold acid wash solution (0.2 M acetic acid +0.5 M NaCl, pH 2.8) for 15 minutes. Cells were immediately fixed with 4% paraformaldehyde for 10 minutes then washed 3 times with PBS. Nuclei were stained using DAPI (Molecular Probes, Oregon). Slides were mounted using DABCO and the fluorescence was monitored using a Leica DMLB bright field microscope and SPOT digital camera.

RalA = target: T3, RalA (Homo sapiens, UniProt P11233); assay: [α-32P]-GTP binding to small G protein RalA; details: data not shown
T3 sequence (P11233 1-206): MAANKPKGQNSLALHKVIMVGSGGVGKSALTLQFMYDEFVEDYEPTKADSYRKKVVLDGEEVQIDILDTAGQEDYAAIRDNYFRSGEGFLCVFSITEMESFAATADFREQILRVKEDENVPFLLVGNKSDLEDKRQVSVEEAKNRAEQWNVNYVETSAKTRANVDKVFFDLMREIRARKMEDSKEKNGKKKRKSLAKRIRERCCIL
Procedure: as §4

Ras = assay: [α-32P]-GTP binding to small G protein Ras; details: data not shown
Procedure: as §4

HER14 cells = assay: Texas Red-transferrin uptake in HER14 cells; assay type: cell-based; details: drug added 15 or 60 minutes before Tf-TxR
Procedure: as §5

[3] = test system: isolated nerve terminals (synaptosomes); assay: Glutamate release assay (exocytosis) in synaptosomes; assay type: cell-based, rat; details: 30 mM KCl
Procedure: The glutamate release assay was performed using enzyme-linked fluorescent detection of released glutamate (Cousin and Robinson., 2000a, b). Briefly, synaptosomes (0.6 mg in 2 ml) were resuspended in either plus (1.2 mM CaCl2) or minus (1 mM EGTA) Ca^2+ Krebs-like solution (118.5 mM NaCl, 4.7 mM KCl, 1.18 mM MgCl2, 0.1 mM Na2HPO4, 20 mM Hepes, 10 mM glucose, pH 7.4) at 37° C. Experiments were started after addition of 1 mM NADP^+. After 1 minute 50 U of glutamate dehydrogenase was added and the synaptosome suspension was stimulated after 4 minutes with 30 mM KCl. Increases in fluorescence due to production of NADPH were monitored in a Perkin-Elmer LS-50B spectrofluorimeter at 340 nm excitation and 460 nm emission. Experiments were standardised by the addition of 4 nmol of glutamate. Data is presented as Ca^2+-dependent glutamate release, calculated as the difference between release in plus and minus Ca^2+ solution for identical stimulation conditions.

[4] = test system: isolated nerve terminals (synaptosomes); assay: Synaptic vesicle endocytosis, FM2-10 uptake in synaptosomes; assay type: cell-based, rat; details: 100 μM
Procedure: Isolated nerve terminals (synaptosomes) were prepared from rat cerebral cortex by centrifugation on discontinuous percoll gradients (Dunkley et al., 1986). Fractions 3 and 4 were pooled and used in all experiments. Endocytosis was measured using uptake of the fluorescent dye FM2-10 as previously described (Cousin and Robinson 2000a). Synaptosomes (0.6 mg in 2 ml) were incubated for 5 min at 37° C. in plus or minus Ca^2+ Krebs-like solution. FM2-10 ([…]) was added 1 min before stimulation with 30 mM KCl (S1). As FM2-10 is taken up by vesicles via endocytosis at the S1 phase of stimulation, synaptosomes were incubated with antagonists during this phase. […] After 2 min of stimulation synaptosomes were washed twice in plus Ca^2+ solution containing 1 mg/ml bovine serum albumin. The washing steps remove non-internalised FM2-10 and the tyrphostins. Washed synaptosomes were resuspended in plus Ca^2+ solution at 37° C., transferred to a fluorimeter cuvette and stimulated with a standard addition of 30 mM KCl (S2). The standard S2 stimulation releases all accumulated FM2-10 and allows endocytosis to be measured as the decrease in FM2-10 fluorescence due to dye release into solution (excitation 488 nm, emission 540 nm).
Endocytosis was calculated as the decrease in absolute fluorescence stimulated by 30 mM KCl at S2. […] Retrieval efficiency is a more accurate measure of endocytosis since it takes into account the amount of prior exocytosis. Retrieval efficiency was calculated as endocytosis/exocytosis, where endocytosis is defined as above and exocytosis as Ca^2+-dependent glutamate release after 2 min of stimulation. The retrieval efficiency value was normalised to a ratio of 1.0 for 30 mM KCl.

T1 sequence (A0ACI6NZN1 entry or part of it): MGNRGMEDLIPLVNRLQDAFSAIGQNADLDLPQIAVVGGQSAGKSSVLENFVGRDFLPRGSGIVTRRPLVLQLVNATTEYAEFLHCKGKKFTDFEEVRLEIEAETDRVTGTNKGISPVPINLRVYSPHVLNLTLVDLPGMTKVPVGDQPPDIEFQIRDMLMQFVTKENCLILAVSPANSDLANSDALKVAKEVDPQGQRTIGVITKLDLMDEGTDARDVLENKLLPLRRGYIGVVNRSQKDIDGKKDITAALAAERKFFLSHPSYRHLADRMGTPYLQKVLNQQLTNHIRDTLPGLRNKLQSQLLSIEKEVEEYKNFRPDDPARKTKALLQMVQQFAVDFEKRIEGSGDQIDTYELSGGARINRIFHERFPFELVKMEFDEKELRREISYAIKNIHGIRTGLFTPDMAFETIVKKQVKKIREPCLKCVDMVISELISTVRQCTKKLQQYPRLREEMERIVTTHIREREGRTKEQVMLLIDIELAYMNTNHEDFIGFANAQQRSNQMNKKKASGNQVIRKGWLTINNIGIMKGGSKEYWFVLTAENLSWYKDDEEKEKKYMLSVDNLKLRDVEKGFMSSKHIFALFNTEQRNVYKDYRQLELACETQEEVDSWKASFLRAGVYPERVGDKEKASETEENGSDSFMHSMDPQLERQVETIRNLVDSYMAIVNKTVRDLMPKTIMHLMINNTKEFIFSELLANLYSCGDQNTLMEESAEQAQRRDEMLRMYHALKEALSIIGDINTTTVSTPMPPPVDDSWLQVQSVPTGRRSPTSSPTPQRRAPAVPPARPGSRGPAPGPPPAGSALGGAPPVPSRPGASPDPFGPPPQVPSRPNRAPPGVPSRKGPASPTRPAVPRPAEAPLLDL

O[C@H](CS)[C@H](O)CS (racemic) [Dithiothreitol, dithiothreitol]
effect on dynamin GTPase activity (dynamin I [1]; alone, data not shown): without effect

CN(C)CCCn1cc(C2=C(c3c[nH]c4ccccc34)C(=O)NC2=O)c2ccccc21 [BIM I]
[α-32P]-GTP binding to dynamin II in the presence of drug (dynamin II): compete with GTP
[α-32P]-GTP binding to dynamin I in the presence of drug (dynamin I [2]): compete with GTP
ability to inhibit GTPase activity of dynamin I lacking the PH domain (ΔPH domain dynamin I): lost its ability to inhibit

COc1cc(C=C(C#N)C(=O)NCCCNC(=O)C(C#N)=Cc2cc(O)c(O)c(OC)c2)cc(O)c1O [Compound 24, 2-Cyano-N-{3-[2-cyano-3-(3,4-dihydroxy-methoxyphenyl)-acryloylamino]-propyl}-3-(3,4-dihydroxy-5-methoxyphenyl)-acrylamide]
IC50 (dynamin I [1]; library 1 (dimeric) compounds): 5 ± 1 µM

N#C/C(=C\c1ccc(O)c(O)c1)C(=O)N1CCN(C(=O)/C(C#N)=C/c2ccc(O)c(O)c2)CC1 [Compound 71]
dynamin inhibition (dynamin I [1]; screen at ≦100 μM): no dynamin inhibition

N#C/C(=C\c1ccc(O)c(O)c1)C(N)=S [tyrphostin A47]
effect on [α-32P]-GTP binding to Arf2 (Arf2): neither drug affected
inhibitory potency on dynamin (dynamin I [1]; freshly prepared solutions): no inhibitory potency
inhibitory potency on dynamin (dynamin I [1]; stocks kept at room temperature for 24 hrs): weak potency
effect on [α-32P]-GTP binding to Rab3A (Rab3A): neither drug affected
internalisation of texas-red labelled transferrin into Swiss 3T3 cells (Swiss 3T3 cells): not as dramatically as bis-tyrphostin
effect on [α-32P]-GTP binding to RalA (RalA): neither drug affected
effect on [α-32P]-GTP binding to Ras (Ras): neither drug affected
[α-32P]-GTP binding to dynamin I in the presence of drug (dynamin I [2]): not seen to decrease; also recorded: not affected
internalisation of texas-red labelled transferrin into HER14 cells (HER14 cells): not as dramatically as bis-tyrphostin
exocytosis (Ca2+-dependent glutamate release) [3]: no effect
inhibition of synaptic vesicle endocytosis (SVE) ([4]; synaptosomes): did not
retrieval efficiency (endocytosis/exocytosis) ([4]; 1 indicates no drug effect): 0.95 (±0.05)
